In US20260070945A1, “MACROCYCLIC IMMUNOMODULATORS” (Bristol-Myers Squibb Company, priority 2022, published 2026) one finds IC50 data, which are given here for 9 molecules.

A word on the IC50: it is the concentration at which inhibition is half-maximal.

Where a SMILES comes first, the peptide text is derived from it. Bridges are numbered along the chain shown (N, C = ends). [ ]: non-standard residue; d: D form. The star is where a group is joined. ξ: configuration not given here. Phe(4-COOH) = N[C@@H](Cc1ccc(C(=O)O)cc1)C(=O)O; Bip = N[C@@H](Cc1ccc(-c2ccccc2)cc1)C(=O)O; Phe(3-Me) = Cc1cccc(C[C@H](N)C(=O)O)c1; Cha = N[C@@H](CC1CCCCC1)C(=O)O; Cit = NC(=O)NCCC[C@H](N)C(=O)O; Ile(3ξ) = CCC(C)[C@H](N)C(=O)O; Thr(3ξ) = CC(O)[C@H](N)C(=O)O; Carboxymethyl = O=C(O)C*; NMeA = CN[C@@H](C)C(=O)O; Aun = NCCCCCCCCCCC(=O)O; Dab = NCC[C@H](N)C(=O)O; AEEA = NCCOCCOCC(=O)O

T1 sequence (Q15116 25-288): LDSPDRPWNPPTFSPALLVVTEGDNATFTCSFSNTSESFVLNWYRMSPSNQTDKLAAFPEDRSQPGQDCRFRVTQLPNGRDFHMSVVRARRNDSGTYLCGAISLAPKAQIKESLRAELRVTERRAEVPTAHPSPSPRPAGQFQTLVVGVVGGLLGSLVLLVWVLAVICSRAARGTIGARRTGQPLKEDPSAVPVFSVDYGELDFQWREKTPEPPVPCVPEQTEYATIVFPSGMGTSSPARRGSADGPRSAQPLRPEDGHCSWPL

The experiment has as its target T1, PD-1/PD-L1 interaction (PE-labeled human PD-L1-Ig binding to Jurkat cell line over-expressing human PD-1) (Homo sapiens, UniProt Q15116).
T1 construct: expressed in transfected cells; host or cells: Jurkat
As to the kind of experiment: Jurkat-PD-1 Cell Binding High-Content Screening Assay (CBA). Particulars: Jurkat-hPD-1 cells, PE-labeled PD-L1-Ig 20 nM final; read-out: Jurkat HPD1 PDL1 IC50. The essentials: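 In this imaging assay, cells in 10% FCS medium see compound for 2 h at 37 °C and then labeled ligand at 20 nM final for 1 h. Paraformaldehyde fixation, Hoechst 33342 staining and dPBS washes precede image capture.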
With `Cc1cccc(C[C@@H]2NC(=O)[C@H](CC(=O)O)NC(=O)[C@H](Cc3ccc(OCC(=O)O)cc3)NC(=O)[C@H](Cc3ccc(OCC(=O)O)cc3)NC(=O)CSC[C@@H](C(=O)NCCOCCOCC(=O)NCCCCCCCCCCC(=O)O)NC(=O)[C@H](CCCNC(=N)N)NC(=O)[C@H](C(C)C)NC(=O)[C@H](CC3CCCCC3)NC(=O)[C@H](CCN)NC(=O)[C@@H](CC(C)C)NC(=O)[C@H](C)N(C)C(=O)[C@H](Cc3ccc(O)cc3)NC(=O)[C@H](Cc3ccc(-c4ccccc4)cc3)NC(=O)[C@H](CC(C)C)NC2=O)c1` [Example 2280] ({CH2CO}-Y(Carboxymethyl)Y(Carboxymethyl)D[Phe(3-Me)]L[Bip]Y[NMeA][dL][Dab][Cha]VRC[AEEA][Aun]-OH; thioether N-14), the half-inhibitory concentration (IC50) amounted to 0.104 µM.
The value for `CC(=O)NCCCC[C@@H]1NC(=O)[C@H](Cc2ccc(-c3ccccc3)cc2)NC(=O)[C@H](CC(C)C)NC(=O)[C@H](Cc2cccc(C)c2)NC(=O)[C@H](CC(=O)O)NC(=O)[C@H](Cc2ccc(C(=O)O)cc2)NC(=O)[C@H](Cc2ccc(OCC(=O)O)cc2)NC(=O)CSC[C@@H](C(=O)NCCOCCOCC(=O)NCCCCCCCCCCC(=O)O)NC(=O)[C@H](C(C)O)NC(=O)[C@H](C(C)C)NC(=O)[C@H](CC2CCCCC2)NC(=O)[C@H](CCN)NC(=O)[C@@H](CC(C)C)NC(=O)[C@H](C)N(C)C1=O` (stereo partly drawn) [Example 2282] ({CH2CO}-Y(Carboxymethyl)[Phe(4-COOH)]D[Phe(3-Me)]L[Bip]K(Ac)[NMeA][dL][Dab][Cha]V[Thr(3ξ)]C[AEEA][Aun]-OH; thioether N-14) was 0.0353 µM.
With `CC(=O)NCCCC[C@@H]1NC(=O)[C@H](Cc2ccc(-c3ccccc3)cc2)NC(=O)[C@H](C(C)C)NC(=O)[C@H](Cc2cccc(C)c2)NC(=O)[C@H](CC(=O)O)NC(=O)[C@H](Cc2ccc(C(=O)O)cc2)NC(=O)[C@H](Cc2ccc(OCC(=O)O)cc2)NC(=O)CSC[C@@H](C(=O)NCCOCCOCC(=O)NCCCCCCCCCCC(=O)O)NC(=O)[C@H](C(C)O)NC(=O)[C@H](C(C)C)NC(=O)[C@H](CC2CCCCC2)NC(=O)[C@H](CCN)NC(=O)[C@@H](CC(C)C)NC(=O)[C@H](C)N(C)C1=O` (stereo partly drawn) [Example 2283] ({CH2CO}-Y(Carboxymethyl)[Phe(4-COOH)]D[Phe(3-Me)]V[Bip]K(Ac)[NMeA][dL][Dab][Cha]V[Thr(3ξ)]C[AEEA][Aun]-OH; thioether N-14), the concentration for half-maximal inhibition (IC50) came out at 0.0205 µM.
The result for `Cc1cccc(C[C@@H]2NC(=O)[C@H](CC(=O)O)NC(=O)[C@H](Cc3ccc(C(=O)O)cc3)NC(=O)[C@H](Cc3ccc(OCC(=O)O)cc3)NC(=O)CSC[C@@H](C(=O)NCCOCCOCC(=O)NCCCCCCCCCCC(=O)O)NC(=O)[C@H](C(C)O)NC(=O)[C@H](C(C)C)NC(=O)[C@H](CC3CCCCC3)NC(=O)[C@H](CCN)NC(=O)[C@@H](CC(C)C)NC(=O)[C@H](C)N(C)C(=O)[C@H](CCC(N)=O)NC(=O)[C@H](Cc3ccc(-c4ccccc4)cc3)NC(=O)[C@H](C(C)C)NC2=O)c1` (stereo partly drawn) [Example 2284] ({CH2CO}-Y(Carboxymethyl)[Phe(4-COOH)]D[Phe(3-Me)]V[Bip]Q[NMeA][dL][Dab][Cha]V[Thr(3ξ)]C[AEEA][Aun]-OH; thioether N-14) reads 0.0236 µM; that for `CC(C)C[C@@H]1NC(=O)[C@H](Cc2c[nH]c3ccccc23)NC(=O)[C@H](CC(=O)O)NC(=O)[C@H](Cc2ccc(C(=O)O)cc2)NC(=O)[C@H](Cc2ccc(OCC(=O)O)cc2)NC(=O)CSC[C@@H](C(=O)NCCOCCOCC(=O)NCCCCCCCCCCC(=O)O)NC(=O)[C@H](C(C)O)NC(=O)[C@H](C(C)C)NC(=O)[C@H](CC2CCCCC2)NC(=O)[C@H](CCN)NC(=O)[C@@H](CC(C)C)NC(=O)[C@H](C)N(C)C(=O)[C@H](CCC(N)=O)NC(=O)[C@H](Cc2ccc(-c3ccccc3)cc2)NC1=O` (stereo partly drawn) [Example 2285] ({CH2CO}-Y(Carboxymethyl)[Phe(4-COOH)]DWL[Bip]Q[NMeA][dL][Dab][Cha]V[Thr(3ξ)]C[AEEA][Aun]-OH; thioether N-14), 0.0489 µM; that for `Cc1cccc(C[C@@H]2NC(=O)[C@H](CC(=O)O)NC(=O)[C@H](Cc3ccc(C(=O)O)cc3)NC(=O)[C@H](Cc3ccc(OCC(=O)O)cc3)NC(=O)CSC[C@@H](C(=O)NCCOCCOCC(=O)NCCCCCCCCCCC(=O)O)NC(=O)[C@H](CCCNC(N)=O)NC(=O)[C@H](C(C)C)NC(=O)[C@H](CC3CCCCC3)NC(=O)[C@H](CCN)NC(=O)[C@@H](CC(C)C)NC(=O)[C@H](C)N(C)C(=O)[C@H](C(C)C)NC(=O)[C@H](Cc3ccc(-c4ccccc4)cc3)NC(=O)[C@H](CC(C)C)NC2=O)c1` [Example 2286] ({CH2CO}-Y(Carboxymethyl)[Phe(4-COOH)]D[Phe(3-Me)]L[Bip]V[NMeA][dL][Dab][Cha]V[Cit]C[AEEA][Aun]-OH; thioether N-14), 0.0274 µM.
The result for `CCC(C)[C@@H]1NC(=O)[C@H](Cc2ccc(-c3ccccc3)cc2)NC(=O)[C@H](C(C)C)NC(=O)[C@H](Cc2c[nH]c3ccccc23)NC(=O)[C@H](CC(=O)O)NC(=O)[C@H](Cc2ccc(OCC(=O)O)cc2)NC(=O)[C@H](Cc2ccc(OCC(=O)O)cc2)NC(=O)CSC[C@@H](C(=O)N[C@H](CC(N)=O)C(=O)NCCCCCCCCCCC(=O)O)NC(=O)[C@H](CCCNC(=N)N)NC(=O)[C@H](C(C)C)NC(=O)[C@H](CC2CCCCC2)NC(=O)[C@H](CCN)NC(=O)[C@@H](CC(C)C)NC(=O)[C@H](C)N(C)C1=O` (stereo partly drawn) [Example 2287] ({CH2CO}-Y(Carboxymethyl)Y(Carboxymethyl)DWV[Bip][Ile(3ξ)][NMeA][dL][Dab][Cha]VRC[dN][Aun]-OH; thioether N-14) reads 0.0179 µM.
The result for `CCC(C)[C@@H]1NC(=O)[C@H](Cc2ccc(-c3ccccc3)cc2)NC(=O)[C@H](C(C)C)NC(=O)[C@H](Cc2cccc(C)c2)NC(=O)[C@H](CC(=O)O)NC(=O)[C@H](Cc2ccc(OCC(=O)O)cc2)NC(=O)[C@H](CCCNC(=N)N)NC(=O)CSC[C@@H](C(=O)N[C@H](CC(N)=O)C(=O)NCCCCCCCCCCC(=O)O)NC(=O)[C@H](CCCNC(N)=O)NC(=O)[C@H](C(C)C)NC(=O)[C@H](CC2CCCCC2)NC(=O)[C@H](CCN)NC(=O)[C@@H](CC(C)C)NC(=O)[C@H](C)N(C)C1=O` (stereo partly drawn) [Example 2288] ({CH2CO}-RY(Carboxymethyl)D[Phe(3-Me)]V[Bip][Ile(3ξ)][NMeA][dL][Dab][Cha]V[Cit]C[dN][Aun]-OH; thioether N-14) reads 0.0129 µM; that for `CC(=O)NCCCC[C@@H]1NC(=O)[C@H](Cc2ccc(-c3ccccc3)cc2)NC(=O)[C@H](C(C)C)NC(=O)[C@H](Cc2cccc(C)c2)NC(=O)[C@H](CC(=O)O)NC(=O)[C@H](Cc2ccc(OCC(=O)O)cc2)NC(=O)[C@H](CCCNC(=N)N)NC(=O)CSC[C@@H](C(=O)NCCOCCOCC(=O)NCCCCCCCCCCC(=O)O)NC(=O)[C@H](C(C)O)NC(=O)[C@H](C(C)C)NC(=O)[C@H](CC2CCCCC2)NC(=O)[C@H](CCN)NC(=O)[C@@H](CC(C)C)NC(=O)[C@H](C)N(C)C1=O` (stereo partly drawn) [Example 2289] ({CH2CO}-RY(Carboxymethyl)D[Phe(3-Me)]V[Bip]K(Ac)[NMeA][dL][Dab][Cha]V[Thr(3ξ)]C[AEEA][Aun]-OH; thioether N-14), 0.0075 µM.
